From the NIST ThermoML archive (doi:10.1016/j.tca.2017.04.014)

Experiment: molar heat capacity at constant pressure; xn = mol fraction of the nth substance listed
Conditions: 101.3 kPa, Crystal, DSC

[O-2].[O-2].[Th+4] [thorium dioxide] + [O-2].[O-2].[U+4]
molar heat capacity at constant pressure [J/K/mol]
Conditions	x1 = 0.3	x1 = 0.5	x1 = 0.6	x1 = 0.7	x1 = 0.8	x1 = 0.9	x1 = 1
300 K	73.2	70.4	67.7	66.6	66.7	65.1	62.1
310 K	73.7	71.8	69.3	67.6	67.3	66.4	61.8
320 K	75.6	72.6	70.2	68.6	67.9	67.5	62.8
330 K	75.9	73.8	71	69.3	69.1	68	63.5
340 K	76.7	75.1	71.9	69.9	69.7	69	64.2
350 K	78	76.1	72.6	70.4	70.8	70.1	65.1
360 K	78.6	76.8	73.3	70.8	72.1	71.7	65.6
370 K	78.9	77	74.5	71.4	72.3	71.7	65.9
380 K	79.8	77.5	75.1	72	72.3	72	66.8
390 K	80.2	79	75.8	72.9	74.1	73	67.3
400 K	80.8	79.3	76.4	73.9	74.8	73.8	67.7
410 K	81.3	79.6	76.8	73.8	74.8	74.4	68
420 K	81.5	80.3	77.3	75.1	75.4	74.1	68.4
430 K	82.1	81.2	77.5	75.5	75.9	74.4	68.6
440 K	82.3	81.2	77.9	75.8	76.4	74.9	68.9
450 K	83.3	82.1	78.6	75.7	76.9	76	69.6
460 K	83.7	82.2	79.4	75.8	77.2	76.2	69.8
470 K	83.9	82.8	79.5	76.2	77.5	76.7	70.1
480 K	84	83.5	80.2	76.6	77.3	77	70.2
490 K	84.5	83	80	77.9	78	77	70.5
500 K	84.9	83.8	80.7	78.1	78.8	77	70.7
510 K	85.5	84.1	80.7	77.9	78.6	78.3	70.9
520 K	85.3	84.8	81	78.3	79	78.6	71.2
530 K	85.5	84.5	81	78.4	79.6	78.6	71.4
540 K	86.4	85	81.5	78.9	79.7	78.9	71.7
550 K	86.6	85.1	82.9	79.6	80	78.9	71.9
560 K	86.7	85.8	82.8	79.8	80.2	79.1	72
570 K	86.7	86.2	82.8	80.3	80.1	79.7	72.1
580 K	87.1	85.6	83.4	80.5	80.2	79.7	72.3
590 K	87.4	86.7	83.4	80.6	80.5	79.7	72.5
600 K	88	87	83.7	80.6	80.6	79.7	72.5
610 K	87.5	86.6	84.4	80.6	80.6	79.7	72.5
620 K	88	86.9	84.8	81.2	80.6	79.9	73
630 K	88.5	87.5	84.2	81.4	81.1	80.2	73
640 K	88.7	87.2	85.1	81.5	81.1	80.5	73.3
650 K	88.9	87.3	85.1	82	80.9	80.7	73.6
660 K	89	87.6	84.9	81.8	81.6	79.7	73.5
670 K	88.9	88.3	85.8	82.3	81.9	79.7	73.6
680 K	89.4	88.2	86.4	82.4	81.5	79.7	73.6
690 K	90.2	88.2	86.4	82.4	81.6	79.9	73.4
700 K	90.4	88.6	86.4	83.3	81.7	80.2	73.8
710 K	91.2	89.5	86.4	83.3	82.2	80.5	74.5
720 K	91.9	89.2	86.7	83.3	82.4	80.7	74.5
730 K	92.2	90.1	87.3	83.3	82.7	81.2	74.6
739 K	–	–	–	–	–	–	74.7
740 K	92.9	90.4	87.7	83.3	82.7	81.4	–
750 K	93.1	91	87.8	83.6	82.7	81.3	74.6
760 K	93.5	91	89.1	83.9	82.9	81.5	75
770 K	94	91.7	89.1	84.3	82.8	81.5	75.3
780 K	94.2	91.8	89.1	84.5	83.1	81	75.3
790 K	94.3	92.3	89.1	84.9	83	81.8	75.3
800 K	94.4	92.3	89.1	84.9	83.3	81.3	75.7
810 K	95	92.7	89.8	85.3	83.1	82.3	75.7
820 K	95.3	92	90.2	85.7	83.2	82.3	75.7
830 K	95.6	92.8	89.5	86	83.3	82.3	75.9
840 K	96	92.9	90.3	86	83.5	82.3	76
850 K	96.1	93.2	90.7	86	83.6	82.3	76.1
860 K	96.1	93.4	90.7	86	83.7	83.4	76.4
870 K	96.3	93.8	90.8	86.4	84	83.9	76.1
